Results as given in patent publication US8293215B2, “Flavour modulating derivative of a carboxylic acid and a purine, pyrimidine, nucleoside, or nucleotide” (Givaudan Nederland Services B.V., priority 2006, dated 2012).
Each block holds one compound with its values, some of them ahead of it.

How the values were obtained:
[1] = system: professional sensory panel; assay: aqueous solutions in 0.5% salt and 0.05% MSG tasted by a professional sensory panel; format: in vivo
Procedure: Six aqueous solutions were prepared: A. 0.5% salt and 0.05% MSG The solutions were tasted by a professional sensory panel. Three aqueous solutions were prepared: A. 0.5% salt and 0.05% MSG The solutions were tasted by a professional sensory panel. Solution A was described as: “salty”. […] Three aqueous solutions were prepared: A. 0.5% salt and 0.05% MSG The solutions were tasted by a professional sensory panel. Solution A was described as: “salty” and “umami”.

sensory panel [2] = assay: tomato soups (10 g powder in 100 ml hot water) tasted and evaluated by a sensory panel; format: in vivo; conditions: for perceived saltiness versus product A (control) / taste description: 50% reduced salt
Procedure: [table] 10 Gram of each composition was mixed with 100 ml hot water to obtain tomato soups. The different soups were tasted and evaluated by a sensory panel.

sensory panel [3] = assay: sweetened 0% fat red fruit yoghurts tasted and evaluated by a sensory panel; format: in vivo
Procedure: Three yoghurts were prepared according to the recipe in table 2. [table] All products were tasted and evaluated by a sensory panel.

[4] = cited from earlier work; for pungency: compared with capsaicin; for taste: as a dry powder and as an alcoholic or aqueous solution
[5] = 0.1 ppt in 0.5% salt and 0.05% MSG (Example 4, solution C)
[6] = 1 ppb in 0.5% salt and 0.05% MSG (Example 3, solution E)
[7] = 10 ppt in 0.5% salt and 0.05% MSG (Example 4, solution D)
[8] = 30 ppb in 0.5% salt and 0.05% MSG (Example 3, solution F)
[9] = product C: 0.005 mg per 100 g tomato soup powder
[10] = Yoghurt B: 0.003 microgram per 100 g yoghurt
[11] = product D: 0.3 mg per 100 g tomato soup powder
[12] = Yoghurt C: 0.15 microgram per 100 g yoghurt

taste strength compared with solution D (0.6 ppb lactoyl-GMP) [1, 6]: stronger than D
strength of the taste compared with solution B (0.6 ppb lactoyl-GMP) [1, 7]: comparable
taste strength compared with solution E (1 ppb acetyl-GMP) [1, 8]: stronger than E
Compound: CC(=O)Nc1nc2c(ncn2[C@@H]2O[C@H](COP(=O)(O)O)[C@@H](O)[C@H]2O)c(=O)[nH]1 [acetyl-GMP, N-acetyl-GMP]
share of the panel that found this detectable [1, 5]: 40%
taste description [1, 5]: “sweet”, “umami”
taste description [1, 6]: “salivating”, “salty”
taste description ([1]; 1 ppt in 0.5% salt and 0.05% MSG (Example 8, solution C)): “sweet”, “umami”
share of the panel that found this detectable [1, 7]: 100%
taste description [1, 7]: “sweet”, “umami”
taste description [1, 8]: “salivating”, “salty”
preference versus product B (50% reduced salt) (sensory panel [2]; [9]): clearly preferred over product B
perceived saltiness versus product A (control) (sensory panel [2]; [9]): comparable to that of product A
taste description (sensory panel [2]; [9]): “more taste”, “more impact”, “more kokumi”, “long lasting” and “salivating”
preference versus product A (yoghurt without modulator) (sensory panel [3]; [10]): clearly preferred over product A
strength compared with product C (0.15 microgram lactoyl-GMP per 100 g) (sensory panel [3]; [10]): comparable
taste description (sensory panel [3]; [10]): sweet, fuller, more natural berry-like, fruity and more balanced flavour

Compound: o-tolylvanillylthiourea
pungency [4]: property of pungency but to a lesser degree than capsaicin

Compound: CC(O)C(=O)Nc1nc2c(ncn2[C@@H]2O[C@H](COP(=O)(O)O)[C@@H](O)[C@H]2O)c(=O)[nH]1 (stereo partly drawn) [lactoyl-GMP, reference compound]
taste description ([1]; 0.6 ppb in 0.5% salt and 0.05% MSG): “sweet”, “lingering umami”, “more salivating”
taste strength compared with solution C (0.2 ppm process flavour containing 0.3% lactoyl-GMP) ([1]; 0.6 ppb in 0.5% salt and 0.05% MSG (Example 3, solution D)): stronger than C
preference versus product B (50% reduced salt) (sensory panel [2]; [11]): clearly preferred over product B
perceived saltiness versus product A (control) (sensory panel [2]; [11]): comparable to that of product A
taste description (sensory panel [2]; [11]): “more taste”, “more impact”, “more kokumi”, “long lasting” and “salivating”
preference versus product A (yoghurt without modulator) (sensory panel [3]; [12]): clearly preferred over product A
taste description (sensory panel [3]; [12]): sweet, fuller, more natural berry-like, fruity and more balanced flavour

Compound: COc1cc(CNC(N)=O)ccc1O [Vanillylurea]
taste [4]: tasteless

Compound: p-tolylvanillylthiourea
pungency [4]: property of pungency but to a lesser degree than capsaicin

Compound: phenylvanillylthiourea
taste [4]: tasteless
pungency [4]: property of pungency but to a lesser degree than capsaicin

Compound: COc1cc(CNC(N)=S)ccc1O [vanillylthiourea]
taste [4]: tasteless

Compound: Nc1nc2c(ncn2[C@@H]2O[C@H](COP(=O)(O)O)[C@@H](O)[C@H]2O)c(=O)[nH]1 [GMP, guanosine 5′-monophosphate, reference compound]
taste description ([1]; 1 ppm in 0.5% salt and 0.05% MSG (Example 3, solution B)): “sweet”, “lingering umami”
